Earlier results as cited in patent US6825382B2, “Trifluoromethylepinephrine compounds and methods of making and using thereof” (The United States of America as represented by the …, priority 2002, dated 2004).
Read-outs that look alike come from different tables or passages of the source.

Legend:
[1] = 1a versus 1b

| Structure (SMILES) | biological activity of (R)-enantiomer relative to (S)-enantiomer [1] | epinephrine remaining, of the initial concentration (dental preparations stored under clinical conditions) | epinephrine remaining, of the initial concentration (dental preparations stored under optimal conditions) [%] |
| --- | --- | --- | --- |
| CNC[C@H](O)c1ccc(O)c(O)c1 [1a, (−)-epinephrine] | 15-20 times |  |  |
| CNC[C@H](O)c1ccc(O)c(O)c1 [epinephrine] |  | less than 70% | 85 to 90 |
